Experimental data taken from patent US20080261902A1, “Pharmaceutical composition containing polydatin and its application” (Shenzhen Neptunus Pharmaceutical Co., Ltd., priority 2005, published 2008).

Tested on: dogs in hemorrhagic shock
Assay: Treatment effect of polydatin drug compositions to dogs in hemorrhagic shock (Embodiment 20)
Assay type: in vivo, Beagle dogs

## NCCc1ccc(O)c(O)c1 [dopamine]
3.0 mg/kg, continuous intravenous infusion 120 min, long-term survival calculated with 168 hours
  average survival time (hour, x ± s): 103.00 ± 89.01 h
24 hours, 3.0 mg/kg
  survival rate: 3 number/5
48 hours, 3.0 mg/kg
  survival rate: 3 number/5
72 hours, 3.0 mg/kg
  survival rate: 3 number/5
Dogs in hemorrhagic shock, during and after infusion
  pulse pressure difference (FIG. 2): increasing range is obviously lower than the polydatin groups
